# Data as given in USRE48335E1, “Polymyxin derivatives as antimicrobial compounds” (priority 2014, dated 2020).
# Starred links: 1 amine or outer side, 2 acyl side, 3 side chain; linkers in the order of their positions; H or OH if unused. Positions of bridges follow the written chain, without caps; N, C: chain ends. Non-standard residues stand in square brackets, D forms with d. Residues, ends and D or L forms follow the SMILES beside them. ξ: configuration not given here. *: point of attachment. X2 = CC(C)C[C@@H](CC(=O)[C@H](CCN)N[*:1])C(=O)[*:2]; Benzoyl(4-CF3) = O=C(c1ccc(C(F)(F)F)cc1)*; Heptanoyl(6-Me) = CC(C)CCCCC(=O)*; X8 = O=C(c1ccc(C(F)(F)F)cc1Cl)*; Thr(3ξ) = CC(O)[C@H](N)C(=O)O; X6 = O=C(c1ccc(F)c(Cl)c1)*; Nonanoyl = CCCCCCCCC(=O)*; Octanoyl = CCCCCCCC(=O)*; Dab = NCC[C@H](N)C(=O)O; Abu = CC[C@H](N)C(=O)O; Dap = NC[C@H](N)C(=O)O
# Columns and labels:
# P. aeruginosa ATCC 27853 = assay: In vivo efficacy in mouse blood infection model (neutropenic Swiss mice); details: compound, free base 4 mg/kg intravenously 2 h after inoculation, blood at 4 h
# In short: (§1)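 Activity expressed as Δlog10 CFU/mL blood, treated minus saline control, 4 h after a single 4 mg/kg (free base) i.v. dose given 2 h post-infection. Bloodstream infection from i.v. early log-phase inoculum in Swiss mice made neutropenic by i.p. cyclophosphamide on days −4 (150 mg/kg) and −1 (100 mg/kg).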
# [1] = test system: K. pneumoniae FADDI-KP032; assay: as above; details: compound, free base 4 mg/kg intravenously 2 h after inoculation, blood at 4 h
# In short: as §1
# A. baumannii ATCC 19606 = assay: as above; details: compound, free base 4 mg/kg intravenously 2 h after inoculation, blood at 4 h
# In short: as §1
# Klebsiella pneumoniae = test system: Klebsiella pneumoniae
# In short: (§2)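 Lipopeptide TFA salts are serially diluted in cation-adjusted Mueller-Hinton broth and inoculated per the CLSI M100-S18 broth microdilution method. The MIC is then recorded, with polymyxin B sulphate included as a control.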
# Enterobacter cloacae = test system: Enterobacter cloacae
# In short: as §2
# Pseudomonas aeruginosa = test system: Pseudomonas aeruginosa
# In short: as §2
# Acinetobacter baumannii = test system: Acinetobacter baumannii
# In short: as §2
SMILES,Δ log (Treated-Control at 4 h) (P. aeruginosa ATCC 27853),Δ log (Treated-Control at 4 h) [1],Δ log (Treated-Control at 4 h) (A. baumannii ATCC 19606),MIC (Klebsiella pneumoniae),"Minimum inhibitory concentration, Ec FADDI-EC001 (Enterobacter cloacae)","Minimum inhibitory concentration, Ec FADDI-EC003 (Enterobacter cloacae)","Minimum inhibitory concentration, Ec FADDI-EC006 (Enterobacter cloacae)",MIC (Pseudomonas aeruginosa),"Minimum inhibitory concentration, Pa ATCC 27853 (Pseudomonas aeruginosa)","Minimum inhibitory concentration, Pa FADDI-PA022 (Pseudomonas aeruginosa)","Minimum inhibitory concentration, Pa FADDI-PA025 (Pseudomonas aeruginosa)",MIC (Acinetobacter baumannii),"Minimum inhibitory concentration, Ab A ATCC 17978 (Acinetobacter baumannii)","Minimum inhibitory concentration, Ab ATCC 19606 (Acinetobacter baumannii)","Minimum inhibitory concentration, Ab FADDI-AB034 (Acinetobacter baumannii)",further results
CC[C@@H]1NC(=O)[C@@H](CC(C)C)NC(=O)[C@H](CCN)NC(=O)[C@@H](NC(=O)[C@H](CN)NC(=O)[C@@H](NC(=O)[C@H](CCN)NC(=O)c2ccc(C(F)(F)F)cc2)[C@@H](C)O)CCNC(=O)[C@H]([C@@H](C)O)NC(=O)[C@H](CCN)NC(=O)[C@H](CCN)NC1=O [Compound 74] ({Benzoyl(4-CF3)}-[Dab]T[Dap][Dab][Dab][dL][Abu][Dab][Dab]T; lactam 4-C),−3.10 log10 CFU/mL,−2.94 log10 CFU/mL,−2.34 log10 CFU/mL,0.25 µg/mL,<0.125 µg/mL,0.25 µg/mL,2 µg/mL,0.5 µg/mL,0.5 µg/mL,0.5 µg/mL,2 µg/mL,0.5 µg/mL,0.5 µg/mL,0.5 µg/mL,1 µg/mL,
CCCCCCCC(=O)N[C@@H](CCN)C(=O)N[C@H](C(=O)N[C@H](CO)C(=O)N[C@H]1CCNC(=O)[C@H](C(C)O)NC(=O)[C@H](CCN)NC(=O)[C@H](CCN)NC(=O)[C@H](C(C)O)NC(=O)[C@@H](CC(C)C)CC(=O)[C@H](CCN)NC1=O)C(C)O (stereo partly drawn) [Compound 1] (Octanoyl-[Dab][Thr(3ξ)][dS][Dab][X2][Thr(3ξ)][Dab][Dab][Thr(3ξ)]; lactam 4-C),0.40 log10 CFU/mL,−3.49 log10 CFU/mL,−2.13 log10 CFU/mL,0.5 µg/mL,<0.125 µg/mL,<0.125 µg/mL,0.5 µg/mL,4 µg/mL,4 µg/mL,4 µg/mL,>32 µg/mL,<0.125 µg/mL,0.25 µg/mL,1 µg/mL,0.25 µg/mL,
CCCCCCCCC(=O)N[C@@H](CCN)C(=O)N[C@H](C(=O)N[C@@H](CN)C(=O)N[C@H]1CCNC(=O)[C@H]([C@@H](C)O)NC(=O)[C@H](CCN)NC(=O)[C@H](CCN)NC(=O)[C@H](C)NC(=O)[C@@H](CC(C)C)NC(=O)[C@H](CCN)NC1=O)[C@@H](C)O [Compound 132] (Nonanoyl-[Dab]T[Dap][Dab][Dab][dL]A[Dab][Dab]T; lactam 4-C),−4.39 log10 CFU/mL,−3.16 log10 CFU/mL,−1.58 log10 CFU/mL,0.25 µg/mL,0.25 µg/mL,<0.125 µg/mL,<0.125 µg/mL,0.5 µg/mL,0.5 µg/mL,1 µg/mL,4 µg/mL,0.5 µg/mL,0.5 µg/mL,0.5 µg/mL,0.25 µg/mL,
CC[C@@H]1NC(=O)[C@@H](CC(C)C)NC(=O)[C@H](CCN)NC(=O)[C@@H](NC(=O)[C@H](CN)NC(=O)[C@@H](NC(=O)[C@H](CCN)NC(=O)c2ccc(F)c(Cl)c2)[C@@H](C)O)CCNC(=O)[C@H]([C@@H](C)O)NC(=O)[C@H](CCN)NC(=O)[C@H](CCN)NC1=O [Compound 110] (X6-[Dab]T[Dap][Dab][Dab][dL][Abu][Dab][Dab]T; lactam 4-C),−3.30 log10 CFU/mL,−2.50 log10 CFU/mL,−1.57 log10 CFU/mL,0.25 µg/mL,1 µg/mL,1 µg/mL,0.5 µg/mL,0.5 µg/mL,0.5 µg/mL,0.5 µg/mL,1 µg/mL,2 µg/mL,0.5 µg/mL,2 µg/mL,0.5 µg/mL,
CC[C@@H]1NC(=O)[C@@H](CC(C)C)NC(=O)[C@H](CCN)NC(=O)[C@@H](NC(=O)[C@H](CN)NC(=O)[C@@H](NC(=O)[C@H](CCN)NC(=O)c2ccc(C(F)(F)F)cc2Cl)[C@@H](C)O)CCNC(=O)[C@H]([C@@H](C)O)NC(=O)[C@H](CCN)NC(=O)[C@H](CCN)NC1=O [Compound 109] (X8-[Dab]T[Dap][Dab][Dab][dL][Abu][Dab][Dab]T; lactam 4-C),−2.68 log10 CFU/mL,−3.47 log10 CFU/mL,−1.54 log10 CFU/mL,0.25 µg/mL,1 µg/mL,<0.125 µg/mL,0.25 µg/mL,0.5 µg/mL,0.5 µg/mL,0.5 µg/mL,2 µg/mL,0.25 µg/mL,1 µg/mL,0.25 µg/mL,1 µg/mL,
"CC(C)CCCCC(=O)N[C@@H](CCN)C(=O)N[C@H](C(=O)N[C@@H](CCN)C(=O)N[C@H]1CCNC(=O)[C@H]([C@@H](C)O)NC(=O)[C@H](CCN)NC(=O)[C@H](CCN)NC(=O)[C@H]([C@@H](C)O)NC(=O)[C@@H](CC(C)C)NC(=O)[C@H](CCN)NC1=O)[C@@H](C)O [Compound 153, polymyxin M2] ({Heptanoyl(6-Me)}-[Dab]T[Dab][Dab][Dab][dL]T[Dab][Dab]T; lactam 4-C)",−2.73 log10 CFU/mL,−3.59 log10 CFU/mL,−1.26 log10 CFU/mL,0.25 µg/mL,,,,0.5 µg/mL,,,,2 µg/mL,,,,"Minimum inhibitory concentration (MIC), Ec FADDI-EC001 (Enterobacter cloacae): 0.25 µg/mL; Minimum inhibitory concentration (MIC), Ec FADDI-EC003 (Enterobacter cloacae): 0.25 µg/mL; Minimum inhibitory concentration (MIC), Ec FADDI-EC006 (Enterobacter cloacae): 0.5 µg/mL; Minimum inhibitory concentration (MIC), Pa ATCC 27853 (Pseudomonas aeruginosa): 0.5 µg/mL; Minimum inhibitory concentration (MIC), Pa FADDI-PA022 (Pseudomonas aeruginosa): 4 µg/mL; Minimum inhibitory concentration (MIC), Pa FADDI-PA025 (Pseudomonas aeruginosa): >32 µg/mL; Minimum inhibitory concentration (MIC), Ab ATCC 17978 (Acinetobacter baumannii): 2 µg/mL; Minimum inhibitory concentration (MIC), Ab ATCC 19606 (Acinetobacter baumannii): 2 µg/mL; Minimum inhibitory concentration (MIC), Ab FADDI-AB034 (Acinetobacter baumannii): 1 µg/mL"
CCCCCCCC(=O)N[C@@H](CCN)C(=O)N[C@H](C(=O)N[C@@H](CN)C(=O)N[C@H]1CCNC(=O)[C@H]([C@@H](C)O)NC(=O)[C@H](CCN)NC(=O)[C@H](CCN)NC(=O)[C@H](C)NC(=O)[C@@H](CC(C)C)NC(=O)[C@H](CCN)NC1=O)[C@@H](C)O [Compound 35] (Octanoyl-[Dab]T[Dap][Dab][Dab][dL]A[Dab][Dab]T; lactam 4-C),−3.36 log10 CFU/mL,−3.12 log10 CFU/mL,−1.60 log10 CFU/mL,<0.125 µg/mL,<0.125 µg/mL,0.25 µg/mL,<0.125 µg/mL,0.5 µg/mL,0.5 µg/mL,0.5 µg/mL,16 µg/mL,0.5 µg/mL,0.5 µg/mL,0.5 µg/mL,0.25 µg/mL,
